{
  "source": "patent US9403843B2",
  "about": "“Cysteine protease inhibitors and uses thereof” (The Trustees of Columbia University in the City of New York, priority 2012, dated 2016)",
  "key": {"[1]": {"biological_target": "Full length porcine calpain (Sus scrofa (Pig), UniProt P35750)", "sequence (P35750 whole entry)": "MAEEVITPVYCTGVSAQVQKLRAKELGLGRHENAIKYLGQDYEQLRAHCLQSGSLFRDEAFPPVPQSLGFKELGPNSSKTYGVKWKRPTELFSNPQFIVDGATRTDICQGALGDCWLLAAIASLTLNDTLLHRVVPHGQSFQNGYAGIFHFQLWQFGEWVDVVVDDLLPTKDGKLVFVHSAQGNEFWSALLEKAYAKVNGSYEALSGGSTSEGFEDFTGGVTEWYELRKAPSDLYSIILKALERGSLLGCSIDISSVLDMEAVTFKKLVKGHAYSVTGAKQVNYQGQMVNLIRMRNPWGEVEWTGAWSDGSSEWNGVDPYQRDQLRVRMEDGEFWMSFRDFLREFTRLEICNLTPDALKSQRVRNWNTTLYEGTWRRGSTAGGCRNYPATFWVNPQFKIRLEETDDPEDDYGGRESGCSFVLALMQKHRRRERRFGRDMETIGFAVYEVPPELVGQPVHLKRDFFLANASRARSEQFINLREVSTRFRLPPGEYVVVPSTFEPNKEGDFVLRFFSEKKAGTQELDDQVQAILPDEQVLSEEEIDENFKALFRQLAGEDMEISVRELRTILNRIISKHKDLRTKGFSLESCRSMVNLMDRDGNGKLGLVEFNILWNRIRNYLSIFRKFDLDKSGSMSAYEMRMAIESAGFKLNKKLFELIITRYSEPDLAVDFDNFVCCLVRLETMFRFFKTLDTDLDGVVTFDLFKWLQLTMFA", "sequence (P04574 whole entry partner)": "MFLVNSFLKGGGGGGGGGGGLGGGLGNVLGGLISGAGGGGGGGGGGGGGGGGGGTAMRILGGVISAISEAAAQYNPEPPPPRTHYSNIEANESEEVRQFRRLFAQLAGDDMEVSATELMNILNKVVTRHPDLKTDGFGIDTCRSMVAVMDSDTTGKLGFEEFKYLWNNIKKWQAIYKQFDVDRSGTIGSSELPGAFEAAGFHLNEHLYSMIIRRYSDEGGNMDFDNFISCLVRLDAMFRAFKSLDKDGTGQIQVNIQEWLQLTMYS", "test": "Calpain inhibition kinetics studies (Suc-LLVY-AMC substrate)", "format": "biochemical"}, "papain": {"biological_target": "papain (Carica papaya (Papaya), UniProt P00784)", "sequence (P00784 134-345)": "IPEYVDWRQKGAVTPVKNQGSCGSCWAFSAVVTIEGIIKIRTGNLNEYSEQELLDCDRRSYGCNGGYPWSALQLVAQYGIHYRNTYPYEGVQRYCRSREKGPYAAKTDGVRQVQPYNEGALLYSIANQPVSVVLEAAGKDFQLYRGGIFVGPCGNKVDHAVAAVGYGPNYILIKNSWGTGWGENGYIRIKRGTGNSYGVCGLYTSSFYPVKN", "test": "biochemical", "format": "biochemical"}, "Cal1cat vs CathB": {"tested_on": "Cal1cat vs CathB", "test": "Competition assay for Cal1 vs CathB using the biotinylated epoxide probe", "format": "binding, rat"}, "[2]": {"test": "Acute and chronic toxicity, maximum tolerated dose", "format": "in vivo", "details": "mouse, in vivo; mice; no malaise or death", "text": "For evaluation of acute and chronic toxicity we measured the maximum tolerated dose (MTD) in mice for 30a, 33 and 50."}, "[3]": {"test": "Plasma pharmacokinetics after i.p. administration", "format": "in vivo", "details": "ICR mice", "procedure": "Plasma concentrations of 30a, 33 and 50 were determined by LC-MS/MS after i.p. administration to ICR mice. The plasma concentrations at each sampling time are shown on FIG. 10. […] Indeed, following i.p. administration of 30a (7.57 mg/kg), 33 (7.86 mg/kg) and 50 (7.83 mg/kg), the peak plasma concentration occurred at 0.25, 0.5 and 0.125 h after dosing, respectively. […] The respective half-lives were ˜0.6 hrs, ˜1.1 hrs and ˜0.6 hrs."}, "[4]": {"tested_on": "calpain-generated spectrin fragments", "test": "Spectrin proteolytic degradation products in hippocampi, western blot", "format": "in vivo", "procedure": "Studies were performed to determine capability of lowering levels of spectrin proteolytic degradation products in hippocampi from adult animals. Using western blot analysis, prevention of calpain-generated spectrin fragments was checked following i.p. treatment for 12 days with 30a, 33 and 50 at the same concentrations used for PK assessment. The array of vehicle samples was obtained by loading samples with 5, 10, 15, and 20 μg total protein/lane. Samples from compound treated animals were loaded at 15 μg/lane."}, "full-length human Cal1": {"biological_target": "full-length human Cal1 (Homo sapiens (Human), UniProt P07384)", "sequence (P07384 whole entry)": "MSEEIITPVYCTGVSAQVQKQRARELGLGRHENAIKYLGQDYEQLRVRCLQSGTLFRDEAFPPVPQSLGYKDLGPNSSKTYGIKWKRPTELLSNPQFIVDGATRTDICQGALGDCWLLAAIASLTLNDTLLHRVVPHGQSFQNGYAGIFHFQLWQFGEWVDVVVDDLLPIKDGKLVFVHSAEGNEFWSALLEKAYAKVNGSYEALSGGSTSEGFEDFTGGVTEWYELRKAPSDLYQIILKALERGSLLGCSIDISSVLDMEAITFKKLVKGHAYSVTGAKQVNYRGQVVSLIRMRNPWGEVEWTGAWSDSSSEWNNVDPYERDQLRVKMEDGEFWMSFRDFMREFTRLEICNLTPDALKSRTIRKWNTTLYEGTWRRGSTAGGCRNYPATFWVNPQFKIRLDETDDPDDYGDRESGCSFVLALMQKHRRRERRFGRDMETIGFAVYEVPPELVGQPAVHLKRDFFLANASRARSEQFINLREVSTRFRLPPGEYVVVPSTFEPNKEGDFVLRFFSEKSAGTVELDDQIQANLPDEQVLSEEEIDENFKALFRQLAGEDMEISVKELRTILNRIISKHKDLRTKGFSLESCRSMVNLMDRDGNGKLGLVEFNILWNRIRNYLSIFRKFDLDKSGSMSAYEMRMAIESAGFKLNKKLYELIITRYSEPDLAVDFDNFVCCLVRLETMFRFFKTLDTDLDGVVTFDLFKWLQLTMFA", "sequence (P04632 whole entry partner)": "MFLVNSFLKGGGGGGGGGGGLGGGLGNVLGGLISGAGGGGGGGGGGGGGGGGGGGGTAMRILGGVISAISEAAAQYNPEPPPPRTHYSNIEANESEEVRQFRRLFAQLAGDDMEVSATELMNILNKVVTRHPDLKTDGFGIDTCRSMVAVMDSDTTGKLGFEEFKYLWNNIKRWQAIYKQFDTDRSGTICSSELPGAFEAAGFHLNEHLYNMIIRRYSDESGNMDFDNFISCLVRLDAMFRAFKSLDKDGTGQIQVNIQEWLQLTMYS", "test": "Calpain inhibition FRET assay", "format": "biochemical", "details": "Table 3, 20 min incubation, FRET substrate"}, "[5]": {"details": "ki/Ki calculated relative to E-64"}, "[6]": {"details": "mean ± S.D. of triplicate experiments"}},
  "data": [
    {"compound": "O=C(O)C1OC1C(=O)N[C@@H](Cc1cscn1)C(=O)Nc1nc(-c2ccc(F)cc2)cs1", "note": "(stereo in doubt) [Compound 33, (2S,3S)-3-((S)-1-(4-(4-fluorophenyl)thiazol-2-ylamino)-1-oxo-3-(thiazol-4-yl)propan-2-ylcarbamoyl)oxirane-2-carboxylic acid]", "values": [
      {"measurement": "Ki", "setting": "[1]; apparent equilibrium constant, full length Cal1, read-out: K1 Calpain1", "result": 2600, "unit": "nM"},
      {"measurement": "ki Calpain1", "setting": "[1]; inhibition rate, full length Cal1", "result": 0.08, "unit": "s⁻¹"},
      {"measurement": "relative selectivity for inhibition of Cal1 over papain (in words)", "setting": "[1]; ki/Ki as measure, compared with E-64", "result": "Cal1 selectivity"},
      {"measurement": "rel Calpain1", "setting": "[1]; [5]", "result": 0.98},
      {"measurement": "10^−4 × ki/Ki Calpain1", "setting": "[1]; [6]", "result": "2.96 ± 0.14"},
      {"measurement": "Ki", "setting": "papain; apparent equilibrium constant, read-out: K1 Papain", "result": 5300, "unit": "nM"},
      {"measurement": "ki Papain", "setting": "papain; inhibition rate", "result": 14.8, "unit": "s⁻¹"},
      {"measurement": "rel Papain", "setting": "papain; [5]", "result": 0.50},
      {"measurement": "10^−5 × ki/Ki Papain", "setting": "papain; [6]", "result": "27.9 ± 4.7"},
      {"measurement": "blocking of active site modification by probe 27 (western blot signal)", "setting": "Cal1cat vs CathB; 10 min pre-treatment, then 20 min with 27", "result": "little change in the CathB signal"},
      {"measurement": "selectivity for Cal1cat (ratio of Cal1cat versus CathB band intensities)", "setting": "Cal1cat vs CathB; ratio for probe 27 alone set as 1.0, inhibitor 5 μM", "result": "highest selectivity"},
      {"measurement": "MTD", "setting": "[2]", "result": 150, "unit": "mg/kg"},
      {"measurement": "time of peak plasma concentration", "setting": "[3]; i.p., 30a 7.57, 33 7.86, 50 7.83 mg/kg", "result": 0.5, "unit": "h"},
      {"measurement": "half-life", "setting": "[3]; mouse, ip, plasma", "result": "~1.1", "unit": "h"},
      {"measurement": "bioavailability", "setting": "[3]; mouse, plasma, ip, after i.p. administration, read-out: absolute bioavailability", "result": 87.3, "unit": "%"},
      {"measurement": "prevention of spectrin cleavage by calpains in hippocampi", "setting": "[4]; i.p. treatment for 12 days, doses as for PK", "result": "dramatically reduced the amount of fragments"},
      {"measurement": "brain penetration", "setting": "[4]; inferred from hippocampal spectrin cleavage", "result": "capable of effectively penetrating the brain"},
      {"measurement": "IC50", "setting": "full-length human Cal1", "result": 100, "unit": "nM"}
    ]}
  ]
}
